Data on two molecules can be found in patent US9182666B2, “Cyclic compound, method for producing the same, radiation-sensitive composition, and resist pattern formation method” (MITSUBISHI GAS CHEMICAL COMPANY, INC., priority 2011, dated 2015).

This data set is described as follows: Solubility test of compound in safe solvent. To be noted: 23° C.; for dissolution amount in CHN: cyclohexanone (CHN); for dissolution amount in PGME: propylene glycol monomethyl ether (PGME). The data set is classed as physicochemical. How it is done:
The dissolution amounts of compounds obtained in the above synthesis examples 1 to 6 and syntheses 1 and 2 in propylene glycol monomethyl ether (PGME) and cyclohexanone (CHN) were evaluated as follows.
• A: 5.0% by mass≦dissolution amount • B: 3.0% by mass≦dissolution amount<5.0% by mass • C: dissolution amount<3.0% by mass *dissolution amount (% by mass)=mass (g) of compound dissolved in 100 g of solvent of 23° C./(100 g of mass of solvent+mass (g) of compound dissolved in 100 g of solvent of 23° C.)×100

For `CC(C)c1ccc(C2c3cc(c(O)cc3O)C(c3ccc(C(C)C)cc3)c3cc(c(O)cc3O)C(c3ccc(C(C)C)cc3)c3cc(c(O)cc3O)C(c3ccc(C(C)C)cc3)c3cc2c(O)cc3O)cc1` (stereo not shown) [CR-1A], the “dissolution amount in CHN” value was “C (dissolution amount<3.0% by mass)” and the “dissolution amount in PGME” value is reported as “B (3.0% by mass≦dissolution amount<5.0% by mass)”.

As for `Oc1cc(O)c2cc1C(c1ccc(C3CCCCC3)cc1)c1cc(c(O)cc1O)C(c1ccc(C3CCCCC3)cc1)c1cc(c(O)cc1O)C(c1ccc(C3CCCCC3)cc1)c1cc(c(O)cc1O)C2c1ccc(C2CCCCC2)cc1` (stereo not shown) [CR-2A], the “dissolution amount in CHN” value was “B (3.0% by mass≦dissolution amount<5.0% by mass)” and the “dissolution amount in PGME” value is on record as “B (3.0% by mass≦dissolution amount<5.0% by mass)”.
